Assay results: patent publication US7858577B2, “Use of the long pentraxin PTX3 for the treatment of diseases caused by an altered activation of the growth factor FGF-2” (Sigma-Tau Industrie Farmaceutiche Riunite S.p.A., priority 2000, dated 2010)

Legend:
FGF-2 [1] = molecular target: T1, FGF-2 (Homo sapiens, UniProt P09038); assay: Capacity of PTX3 to bind FGF in solution (Superose 12 size exclusion chromatography, dot-blot); type: binding; conditions: FGF-2 pre-incubated with PTX3 10 min at 4° C., Superose 12 column
T1 construct: made in house
T1 sequence (P09038 134-288): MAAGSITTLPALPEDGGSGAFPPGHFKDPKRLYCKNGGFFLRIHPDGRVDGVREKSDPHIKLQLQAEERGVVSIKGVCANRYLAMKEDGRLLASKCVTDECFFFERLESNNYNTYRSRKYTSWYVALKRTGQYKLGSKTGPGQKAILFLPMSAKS
Protocol: This experiment has been performed in order to evaluate PTX3 binding to FGF-2. PTX3 has been produced as described by Bottazzi et al., 1997, J. Biol. Chem. 272:32817-32823. Human recombinant FGF-2 has been produced as described by Isacchi A. et al., Proc. Natl. Acad. Sci. U.S.A. (1991), 88:2628-32. When necessary, FGF-2 has been labelled with ^125I following the method described by Isacchi et al. (see below).
100 μl of PBS containing 1 μg of FGF-2, (or alternatively 1 μg of PTX3) were chromatographed on a size exclusion fast protein liquid chromatography Superose 12 column (Pharmacia): this column is able to separate proteins depending on their molecular weight. The column was eluted with PBS at a flow rate equal to 1 ml/minute and 1 ml fractions were collected and analyzed by dot, blot with specific antibodies for the two proteins. In order to evaluate PTX3 binding to FGF-2 the two proteins ([…] and 1 μg, respectively), were mixed in 100 μl PBS and incubated at 4° C. for 10 min. before loading onto the column. Fractions were collected and analysed by dot-blot with anti FGF-2 specific antibodies. […] In the same conditions PTX3 (450.000 D) is eluted with the void volume of the column (7 ml.) When FGF-2 pre-incubated with PTX3 for.

FGF-2 [2] = molecular target: T1, FGF-2; assay: 125I-FGF-2 binding to plastic immobilised proteins; conditions: wells coated with 200 nM PTX3 or CRP or 2 μg/ml control proteins; 30 ng 125I-FGF-2, 2 h room temperature
Protocol: 96 wells plates were coated at 4° C. with 100 μl of NaHCO3 pH 9.6 containing PTX3 or C reactive protein (200 nM) or alternatively 2 μg/ml of the following proteins used as negative control: bovine serum albumin, fibronectin, gelatine or laminin. After incubation, wells were washed 3 times with PBS and blocked 2 h at room temperature with 200 μl of 1 mg/ml of BSA in PBS. At the end of incubation wells were washed 3 times with PBS and subsequently incubated with 30 ng of ^125I-FGF-2 for 2 h at room temperature. Wells were subsequently washed 3 times with PBS and bound ^125I-FGF-2 was recovered by washing each well twice with 200 μl of 2% SDS in water. Levels of ^125I-FGF-2 were measured in a gamma counter.

[3] = system: high affinity receptors (FGFR) on GM7373 cells; assay: Effect of PTX3 on 125I-FGF-2 binding to high affinity receptors on endothelial cells; type: cell-based, bovine; conditions: 125I-FGF-2 10 ng/ml, 2 h at 4° C., increasing concentrations of PTX3
Protocol: Transformed foetal bovine aortic endothelial cells GM7373 were seeded at 80,000 cells/cm^2 in 24-well dishes in Eagle's minimal essential medium (Eagle's MEM) containing 10% FCS. After 24 h at 37° C. adherent cells were washed twice with Eagle's MEM without FCS and subsequently incubated for 2 h at 4° C. with ^125I-FGF-2 (10 ng/ml) in Eagle's MEM containing 0.15% gelatine and 20 mM HEPES pH 7.5 in the absence or in the presence of increasing concentrations of PTX3. At the end of incubation the amount of ^125I-FGF-2 bound to low (HSPGs) and high affinity receptors (FGFR) was evaluated as described by Moscatelli, 1987 J. Cell. Physiol. 131:123-30. Briefly cells were rinsed twice with 2 M NaCl in 20 mM HEPES buffer (pH 7.5) to remove ^125I-FGF-2 bound to low-affinity binding sites and twice with 2 M NaCl in 20 mM sodium acetate (pH 4.0) to remove ^125I-FGF-2 bound to high-affinity binding sites. Non-specific binding was measured in the presence of a 100-fold molar excess of unlabeled FGF-2 and subtracted from all the values.

MAE3F2T cells = assay: Effect on FGF-2 dependent autocrine proliferation of MAE3F2T cells; type: cell-based, murine; conditions: 72 h in 0.4% FCS; PTX3 70 nM, suramin 50 μg/ml, anti FGF-2 antibodies; cell counting
Protocol: In this experiment we have investigated the effect of PTX3 on the proliferation of the murine aortic endothelial cell line MAE3F2T stably transfected with an expression vector coding for FGF-2 (Gualandris et al. 1996, Cell Growth Diff. 7:147-60). These cells can proliferate in response to a autocrine loop of stimulation induced by endogenous FGF-2 (Gualandris et al. 1996, Cell Growth Diff. 7:14760). MAE3F2T cells were seeded at 10,000/cm^2 in 48-well plates in Dulbecco medium (DMEM) added with 10% FCS. After 24 h at 37° C., adherent cells were washed twice with DMEM without FCS and incubated for 72 at 37° C. in DMEM containing 0.4% FCS in the presence or not of PTX3 (70 nM), anti FGF-2 specific antibodies or suramin (50 μg/ml). Suramin is known for its capacity to sequestrate extracellular FGF-2 and inhibits its biological activities (Rusnati et al., 1996, Mol. Biol. Cell. 7:369-381). At the end of incubation cells were trypsinized and counted in a Burker chamber.

FGF2MAE3F2T cells = assay: Invasive behaviour of PTX3 over-expressing FGF2MAE3F2T clones on three-dimensional fibrin gels; type: cell-based, murine; conditions: PTX3 over-expressing clones (cDNA transfection) vs parental cells, after 2 days, image analysis
Text: Murine endothelial cells overexpressing FGF-2, named FGF2MAE3F2T (Gualandris et al. 1996, Cell Growth Diff. 7:147-60) were transfected with human PTX3 full length cDNA subcloned in the commercial expression vector pLXSH (Clontech).
In vitro studies on the transfected cell lines obtained were, performed to study the effect of PTX3 over-expression on FGF-2-dependent proliferation of FGF2MAE3F2T cells and their invasive behaviour on three-dimensional fibrin gels.
To evaluate the invasive behaviour of FGF2MAE3F2T clones over-expressing PTX3 on three-dimensional fibrin gels, cell aggregates were prepared on agarose-coated plates exactly as described (Gualandris et al. 1996, Cell Growth Diff. 7:147-60). These aggregates were seeded onto fibrin-coated 48 well-plates. Immediately after seeding, 250 µl of calcium-free medium containing fibrinogen (2.5 mg/ml) and thrombin (250 mU/ml) were added to each well and allowed to gel for 5 min at 37° C. Then, […] of culture medium were added on the top of the gel. In all the, experiments, the fibrinolytic inhibitor trasylol was added to the gel and to the culture medium at 200 KIU/ml to prevent the dissolution of the substrate. Formation of radially growing cell sprouts was evaluated after 2 days by computerized image analysis.

## PTX3: long pentraxin PTX3; preferred is human PTX3, sequence described in WO99/32516; produced as by Bottazzi et al. 1997
FGF-2 [1]
  binding of PTX3 to FGF-2 in solution (change of FGF-2 chromatographic behaviour): FGF-2 was eluted from the column with a retention volume equal to PTX3 alone
FGF-2 [2]
  binding of 125I-FGF-2 to plastic immobilised protein: FGF-2 binds plastic immobilised PTX3
[3]
  inhibition of FGF-2 binding to high-affinity receptors on endothelial cells: able to inhibit in a dose-dependent manner
MAE3F2T cells
  inhibition of FGF-2 dependent proliferation of MAE3F2T cells: inhibiting their FGF-2 dependent proliferation
FGF2MAE3F2T cells
  invasive capacity on fibrin gels (radially growing cell sprouts): significantly lower
